Results as given in US12084411B2, “Hinokitiol analogues, methods of preparing and pharmaceutical compositions thereof” (The Board of Trustees of the University of Illinois, priority 2018, dated 2024).

Legend:
[1] = Electrochemical studies (cyclic voltammetry) of iron:chelator complexes; format: physicochemical
Experimental: Potentiostatic electrochemical methods were performed on a CH Instruments electrochemical workstation (model 760 C, Austin, TX) on a three-electrode cell. Hg working electrodes were fabricated by the electrodeposition of Hg on a Pt wire utilizing the procedure previously described by Barton et al. (70). All experiments were reported versus a Ag/AgCl reference electrode and utilized a graphite auxiliary electrode. The electrolyte was sparged with UHP argon before measurements. A positive pressure of argon was maintained throughout the experiments.
Unless otherwise indicated, experiments used a 0.1 M Tris buffer in H2O or 1:1 MeOH:H2O at pH=7.2 using HNO3 and KOH as titrant. Unless otherwise indicated, experiments used a 100 mV/s scan rate, 100 μM Fe(NO3)3, and 500 μM small molecule. All redox potentials are recorded versus a normal hydrogen electrode (NHE).
The estimated redox potential of Fe(Hino)n was determined through extrapolation of the best-fit line of the determined redox potentials of Fe(Hino)n as a function of the concentration of MeOH in the 0.1 M Tris buffer at pH=7.2.

[2] = tested on: FPN1-deficient Caco-2 monolayers; assay: 55Fe uptake and transport in FPN1-deficient Caco-2 monolayers; format: cell-based, Human; conditions: 1 μM
Experimental: To knockdown FPN1 levels in wild type Caco-2 cells, the differentiated epithelial monolayers were incubated with 150 μM quercetin (Sigma 337951) for 18 hours in Caco-2 Complete media containing G418 similar to previously described (40). To knockdown FPN1 levels in shControl and shDMT1 Caco-2 monolayers, incubation was performed as above except with 250 μM quercetin. After completion of the incubation, the apical and basolateral fluid was aspirated and rinsed with PBS before ^55Fe transport and uptake were determined as described above.

shDMT1 Caco-2 monolayers = assay: Iron-related protein and mRNA levels in shDMT1 Caco-2 monolayers; format: cell-based, Human; conditions: hinokitiol up to 5 μM, 25 μM FeCl3, 4 hours
Experimental: The threshold cycle values were normalized to internal control actin using primers against Fpn1 (Origene HB210988) and Fth1 (Origene HP205786) using the Pfaff1 Method and were then normalized to shDMT1 levels in the absence of hinokitiol. Caco-2 monolayers, differentiated MEL cells, or J774 cells underwent treatment as described in rescue experiments before lysis with RIPA buffer (Thermo 89901) containing protease inhibitors (Thermo 88266). Protein concentrations were determined by a BCA kit (Thermo 23225) and diluted to 2 mg/mL in the same RIPA buffer. […] Blots were thoroughly rinsed with TBST and imaged after addition of Femto Chemluminescence solution according to manufacturer instructions (Thermo Fisher 34095). For results found in FIG. 19E, protein lysate was isolated after treatment with 500 nM FeCl3 as described below. For results found in FIG. 22A, Caco-2 monolayers were treated with 25 μM FeCl3 and 0, 0.5, 1, 3, 5, 10, 25, or 50 μM hinokitiol as described below. […] Experiments for the translational and transcriptional regulated changes in endogenous proteins upon addition of increasing hinokitiol concentrations (FIG. 5F-J, FIG. 21, and FIG. 22A-L) used 25 μM of non-radioactive FeCl3 and the indicated concentration of hinokitiol (from a 1000X stock in DMSO).

[3] = tested on: FPN1-deficient J774 macrophages; assay: 55Fe release from FPN1-deficient J774 macrophages; format: cell-based, mouse; conditions: hepcidin-treated cells
Experimental: To knockdown FPN1 levels in wild type J774 cells, the cells were incubated with […] mouse hepcidin (Peptides International PLP-3773-PI) for 1 hour in J774 Complete media similar to previously described (41) before ^55Fe was loaded into J774 cells and ^55Fe release was determined.
J774 cells were grown in 12-well plates to ˜80% confluency. The cells were then treated with vehicle or hepcidin in fresh J774 Complete media (1 mL) and incubated at 37° C. for 1 hour. After incubation, the media was aspirated, and then a ^55Fe2Tf (50 nM) solution in J774 Complete media (1 mL) containing vehicle or hepcidin was added. The cells were incubated at 37° C. for 10 minutes, and the media was removed. The cells were rinsed with PBS (×2), and then rinsed with J774 Complete media (1 mL) for 10 minutes at 37° C. […] At the indicated times, aliquots (<100 μL) of the media were removed, diluted in scintillation cocktail, and radioactivity was determined by liquid scintillation counting. […] The cell lysate was diluted in scintillation cocktail and intracellular ^55Fe levels were determined by liquid scintillation counting. The % ^55Fe release was determined by the ratio of extracellular ^55Fe to total (intracellular+ extracellular) ^55Fe at the indicated times.

[4] = tested on: mice injected with turpentine oil (TO); assay: Acute anemia of inflammation model, turpentine oil injection; format: in vivo; conditions: once daily for 3 days, 16 h post-injection
Experimental: FIGS. 27A-27E show hinokitiol efficacy in a model of acute anemia of inflammation (Al). Mice (male; C57BL/6; 7-week-old; n=8-10) were administered turpentine oil (TO) (5 mL/kg) or saline, and euthanized 3, 6, 12, 16, 24 h post injection. (A) Hepcidin mRNA measured by qPCR. (B) Proteins quantified by Western blot analysis. (C) Tissue and serum non-heme iron measured by bathophenanthroline colorimetric assay. (D) Hematocrit measured by centrifugation of heparinized capillaries. (E) Mice given compounds indicated once daily for 3 days. On the third day, mice injected with saline or TO, and euthanized 16 h post-injection.
Injection of turpentine oil (TO) is a common method to induce inflammation in mice. […] As a result, iron buildup occurred in the duodenum and spleen. Moreover, serum iron decreased (FIG. 27C) without affecting hematocrit values (FIG. 27D).

With CC(C)c1cccc(=O)c(O)c1 [hinokitiol] the “E^0 1:1 MeOH:H2O” value ([1]; Table 2, 0.1 M Tris, pH 7.2) was −211 mV vs. N.H.E, the “E^0 Aqueous, estimated from MeOH standard curve” value ([1]; extrapolation of E^01 vs. MeOH concentration) was −361^¶ mV vs. N.H.E and the iron uptake [2] was “without affecting iron uptake”. For the same compound, the “monolayer integrity (TEER)” value [2] was “nor disrupting monolayer integrity”, the transepithelial iron transport [2] was “restored transepithelial iron transport” and the “Fpn1 mRNA and protein levels” value (shDMT1 Caco-2 monolayers) was “decreased”. The “Hif1α and Hif2α levels” value (shDMT1 Caco-2 monolayers) was “similarly decreased”, the IRP2 protein levels (shDMT1 Caco-2 monolayers) was “decreased” and the “TfR1 (3′-IRE) protein levels” value (shDMT1 Caco-2 monolayers) was “decreased”. The “ferritin subunits (5′-IREs) protein levels” value (shDMT1 Caco-2 monolayers) was “increased”, the iron release [3] was “time- and dose-dependently restored iron release” and the “hypoferremia induced by TO injection” value [4] was “mitigated”.
